Measured values reported in US20060193853A1, “Combinations of growth-and hormone-regulating factors for the treatment of neoplasia” (priority 2002, published 2006).

Test system: tumor cell line Dunning R3327-G
Assay: Tumor reduction in Copenhagen rats implanted with tumor cell line Dunning R3327-G (tumor weight at sacrifice)
Format: in vivo
Conditions: three months following the tumor line implant
Experimental: Tumor cell line Dunning R3327-G was implanted into 9-12 weeks old Copenhagen rats (with approximately 100 g of body weight each), which were subjected to different treatments with 2×10^6 cell density per animal in implant medium (RPMI 1640, serum-free in 0.5 ml), on the laxed area of the flanks. One hundred percent attachment efficiency was accomplished in the animals after 90 days.
Eight groups of ten animals each one were formed for the experiment, with Copenhagen rats as described before. […]
DES treatment was made on and off, three times a week at a rate of 1 mg/kg/day, as long as the experiment lasted; and it started once the cells were inoculated. […] (1) The expected effect (Etheoretical) in the case of double combination formulations can be calculated in case either effect is not mutually excluding (Caridad W., Guerra Bustillo, Ernesto Menendez Acuna, Rolando Barrera Morena, Esteban Egana Morales. “Estadistica”, Editorial Pueblo y Educacion, 1989), according to: Etheoretical=ET1+ET2−(ET1*ET2). […]

Compound: CC/C(=C(/CC)c1ccc(O)cc1)c1ccc(O)cc1 [DES, dietilestilbestrol]
- Treatment effect. Etreatment=1-(Ptreatment/Pplacebo) (relative to placebo mean tumor weight): 0.597
- Tumor weight (g) (Mean of ten animals) (tumor dried and weighed): 12.66 g
